Measurements: ChEMBL document CHEMBL6134864, “Discovery of FLT3-ITD Inhibitor Clifutinib: A Novel Biphenylacetylene Urea Derivative in Clinical Trials for the Treatment of Relapsed/Refractory FLT3-ITD+ Acute Myeloid Leukemia” (J Med Chem, 2025)

Assays:
[1] = system: Receptor-type tyrosine-protein kinase FLT3 (Homo sapiens), P36888 [UNDEFINED MUTATION]; experiment: Inhibition of FLT3 in human MV4-11 cells harbouring FLT3-ITD mutant assessed as inhibition of STAT5 phosphorylation level measured after 2 hrs by Western blot analysis; type: cell-based; details: dose 1-1000 nM
Receptor-type tyrosine-protein kinase FLT3 (Homo sapiens), P36888 [UNDEFINED MUTATION], sequence (P36888 whole entry, looked up, change not shown): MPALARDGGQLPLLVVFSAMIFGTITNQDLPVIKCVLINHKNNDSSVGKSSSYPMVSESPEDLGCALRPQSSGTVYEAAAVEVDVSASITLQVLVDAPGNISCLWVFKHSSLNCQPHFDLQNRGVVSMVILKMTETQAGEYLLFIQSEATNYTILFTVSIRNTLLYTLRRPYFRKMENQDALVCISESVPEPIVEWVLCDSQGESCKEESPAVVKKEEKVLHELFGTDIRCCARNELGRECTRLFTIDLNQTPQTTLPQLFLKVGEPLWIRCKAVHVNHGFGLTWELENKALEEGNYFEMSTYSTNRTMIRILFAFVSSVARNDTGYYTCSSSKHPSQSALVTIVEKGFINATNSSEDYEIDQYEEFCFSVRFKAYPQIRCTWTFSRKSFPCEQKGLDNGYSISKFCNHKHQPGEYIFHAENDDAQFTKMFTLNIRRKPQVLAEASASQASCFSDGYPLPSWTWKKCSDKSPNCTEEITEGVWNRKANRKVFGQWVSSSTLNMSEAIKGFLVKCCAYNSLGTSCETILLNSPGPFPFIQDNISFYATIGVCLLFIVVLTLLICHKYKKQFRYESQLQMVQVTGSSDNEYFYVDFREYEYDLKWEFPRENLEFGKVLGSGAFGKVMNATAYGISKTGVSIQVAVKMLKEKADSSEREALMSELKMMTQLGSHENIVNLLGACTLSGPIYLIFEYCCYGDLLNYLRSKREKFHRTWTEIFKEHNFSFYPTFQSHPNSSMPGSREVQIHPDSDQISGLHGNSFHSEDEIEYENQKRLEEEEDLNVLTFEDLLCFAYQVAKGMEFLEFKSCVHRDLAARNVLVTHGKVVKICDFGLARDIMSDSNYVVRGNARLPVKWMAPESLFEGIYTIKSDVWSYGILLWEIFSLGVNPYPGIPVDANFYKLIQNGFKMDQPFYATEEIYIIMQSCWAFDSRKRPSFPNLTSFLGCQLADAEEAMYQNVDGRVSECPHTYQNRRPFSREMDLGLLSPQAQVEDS

[2] = Toxicity in NOD/SCID mouse assessed as effect on body weight at 20 mg/kg/day, po measured for 7 days; type: organism-based; details: in vivo, 168 h, time 7 day
[3] = Cmax in rat plasma at 5 mg/kg, po measured up to 24 hrs by LC-MS/MS analysis; type: ADME, organism-based
[4] = system: Receptor-type tyrosine-protein kinase FLT3 (Homo sapiens), P36888 [UNDEFINED MUTATION]; experiment: Inhibition of FLT3 in human MV4-11 cells harbouring FLT3-ITD mutant assessed as inhibition of FLT3 phosphorylation level measured after 2 hrs by Western blot analysis; type: cell-based; details: dose 1-1000 nM
[5] = system: PC-3; experiment: cells; details: Homo sapiens, PC-3, 72 h
Description: Antiproliferative activity against human PC-3 cells assessed as inhibition of cell growth incubated for 72 hrs by celltiter-glo luminescent cell viability assay

[6] = system: OVCAR-3; experiment: cells; details: Homo sapiens, OVCAR-3, 72 h
Description: Antiproliferative activity against human OVCAR-3 cells assessed as inhibition of cell growth incubated for 72 hrs by celltiter-glo luminescent cell viability assay

[7] = system: U-87 MG; experiment: cells; details: Homo sapiens, 72 h
Description: Antiproliferative activity against human U-87 MG cells assessed as inhibition of cell growth incubated for 72 hrs by celltiter-glo luminescent cell viability assay

[8] = system: BaF3; experiment: Antiproliferative activity against mouse BaF3 cells harbouring FLT3-ITD-F691I mutant assessed as inhibition of cell growth incubated for 72 hrs by celltiter-glo luminescent cell viability assay; type: functional, cell-based; details: BaF3, 72 h
[9] = Half life in monkey plasma at 5 mg/kg, po measured up to 24 hrs by LC-MS/MS analysis; type: ADME, organism-based, Macaca mulatta; details: rhesus monkey
[10] = target: Discoidin domain-containing receptor 2 (Homo sapiens, UniProt Q16832, T654M); experiment: Inhibition of human DDR2 T654M mutant by biochemical kinase binding assay
Discoidin domain-containing receptor 2, sequence (Q16832 22-855 T654M limits assumed): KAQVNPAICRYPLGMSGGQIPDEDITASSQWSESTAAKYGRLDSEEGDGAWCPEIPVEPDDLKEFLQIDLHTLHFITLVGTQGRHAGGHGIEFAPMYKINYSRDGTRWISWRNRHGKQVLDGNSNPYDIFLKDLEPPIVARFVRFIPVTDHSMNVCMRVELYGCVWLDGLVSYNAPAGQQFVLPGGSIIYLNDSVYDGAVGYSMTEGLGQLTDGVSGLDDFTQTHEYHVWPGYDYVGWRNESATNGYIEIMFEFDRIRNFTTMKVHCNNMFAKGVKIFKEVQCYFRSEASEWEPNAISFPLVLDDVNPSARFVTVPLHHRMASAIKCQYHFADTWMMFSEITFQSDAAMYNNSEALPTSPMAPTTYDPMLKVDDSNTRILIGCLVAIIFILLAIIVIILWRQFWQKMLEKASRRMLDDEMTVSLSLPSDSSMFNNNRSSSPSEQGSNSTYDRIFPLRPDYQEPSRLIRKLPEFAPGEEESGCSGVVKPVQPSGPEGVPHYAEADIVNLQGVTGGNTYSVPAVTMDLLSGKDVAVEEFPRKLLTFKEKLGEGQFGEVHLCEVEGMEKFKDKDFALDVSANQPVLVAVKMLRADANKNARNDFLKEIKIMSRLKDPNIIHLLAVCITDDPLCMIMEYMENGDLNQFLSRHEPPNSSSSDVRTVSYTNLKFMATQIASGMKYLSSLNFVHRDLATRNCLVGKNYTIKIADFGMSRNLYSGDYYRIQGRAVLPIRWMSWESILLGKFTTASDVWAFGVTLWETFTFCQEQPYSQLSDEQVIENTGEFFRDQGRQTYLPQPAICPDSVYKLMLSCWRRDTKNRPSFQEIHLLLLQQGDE

[11] = target: Proto-oncogene tyrosine-protein kinase receptor Ret (Homo sapiens, UniProt P07949, G691S); experiment: Inhibition of human RET G691S mutant by biochemical kinase binding assay
[12] = system: RPMI-8226; experiment: cells; details: Homo sapiens, RPMI-8226, 72 h
Description: Antiproliferative activity against human RPMI-8226 cells assessed as inhibition of cell growth incubated for 72 hrs by celltiter-glo luminescent cell viability assay

[13] = Half life in mouse plasma at 2 mg/kg, iv measured up to 24 hrs by LC-MS/MS analysis; type: ADME, organism-based
[14] = system: BaF3; experiment: Antiproliferative activity against mouse BaF3 cells harbouring FLT3-ITD-F691L mutant assessed as inhibition of cell growth incubated for 72 hrs by celltiter-glo luminescent cell viability assay; type: functional, cell-based; details: BaF3, 72 h
[15] = Half life in NOD/SCID mouse tumor xenografted with human MV4-11 cells at 0.5 mg/kg, po measured up to 24 hrs by LC-MS/MS analysis; type: ADME, organism-based, Neoplasm
[16] = Clearance in rat plasma at 5 mg/kg, po measured up to 24 hrs by LC-MS/MS analysis; type: ADME, organism-based
[17] = system: SW-620; experiment: cells; details: Homo sapiens, SW-620, 72 h
Description: Antiproliferative activity against human SW620 cells assessed as inhibition of cell growth incubated for 72 hrs by celltiter-glo luminescent cell viability assay

[18] = AUC (0 to t) in NOD/SCID mouse plasma xenografted with human MV4-11 cells at […], po measured up to 24 hrs by LC-MS/MS analysis; type: ADME, organism-based; details: dose 1.5 mg/kg
[19] = Clearance in dog plasma at 1 mg/kg, iv measured up to 24 hrs by LC-MS/MS analysis; type: ADME, organism-based, Canis lupus familiaris
[20] = Half life in NOD/SCID mouse plasma xenografted with human MV4-11 cells at […], po measured up to 24 hrs by LC-MS/MS analysis; type: ADME, organism-based; details: dose 1.5 mg/kg
[21] = AUC (0 to t) in NOD/SCID mouse tumor xenografted with human MV4-11 cells at […], po measured up to 24 hrs by LC-MS/MS analysis; type: ADME, organism-based, Neoplasm; details: dose 1.5 mg/kg
[22] = Half life in mouse plasma at 10 mg/kg, po measured up to 24 hrs by LC-MS/MS analysis; type: ADME, organism-based
[23] = system: MOLM-13; experiment: Antitumor activity against human MOLM-13 cells xenografted in NOD/SCID mouse model assessed as tumor growth inhibition at 4.5 mg/kg/day, po by caliper analysis relative to control; type: functional; details: read-out: TGI
[24] = system: COLO 205; experiment: cells; details: Homo sapiens, COLO 205, 72 h
Description: Antiproliferative activity against human COLO 205 cells assessed as inhibition of cell growth incubated for 72 hrs by celltiter-glo luminescent cell viability assay

[25] = Clearance in mouse plasma at 2 mg/kg, iv measured up to 24 hrs by LC-MS/MS analysis; type: ADME, organism-based
[26] = Cmax in mouse plasma at 10 mg/kg, po measured up to 24 hrs by LC-MS/MS analysis; type: ADME, organism-based
[27] = Tmax in NOD/SCID mouse plasma xenografted with human MV4-11 cells at 4.5 mg/kg, po measured up to 24 hrs by LC-MS/MS analysis; type: ADME, organism-based
[28] = target: hERG (KCNH2) (Homo sapiens, UniProt Q12809); experiment: Inhibition of human ERG expressed in CHO cells at 30 uM by manual patch clamp assay relative to control; type: toxicity, cell-based; details: CHO cells expressing human ERG
hERG (KCNH2), sequence (Q12809 whole entry): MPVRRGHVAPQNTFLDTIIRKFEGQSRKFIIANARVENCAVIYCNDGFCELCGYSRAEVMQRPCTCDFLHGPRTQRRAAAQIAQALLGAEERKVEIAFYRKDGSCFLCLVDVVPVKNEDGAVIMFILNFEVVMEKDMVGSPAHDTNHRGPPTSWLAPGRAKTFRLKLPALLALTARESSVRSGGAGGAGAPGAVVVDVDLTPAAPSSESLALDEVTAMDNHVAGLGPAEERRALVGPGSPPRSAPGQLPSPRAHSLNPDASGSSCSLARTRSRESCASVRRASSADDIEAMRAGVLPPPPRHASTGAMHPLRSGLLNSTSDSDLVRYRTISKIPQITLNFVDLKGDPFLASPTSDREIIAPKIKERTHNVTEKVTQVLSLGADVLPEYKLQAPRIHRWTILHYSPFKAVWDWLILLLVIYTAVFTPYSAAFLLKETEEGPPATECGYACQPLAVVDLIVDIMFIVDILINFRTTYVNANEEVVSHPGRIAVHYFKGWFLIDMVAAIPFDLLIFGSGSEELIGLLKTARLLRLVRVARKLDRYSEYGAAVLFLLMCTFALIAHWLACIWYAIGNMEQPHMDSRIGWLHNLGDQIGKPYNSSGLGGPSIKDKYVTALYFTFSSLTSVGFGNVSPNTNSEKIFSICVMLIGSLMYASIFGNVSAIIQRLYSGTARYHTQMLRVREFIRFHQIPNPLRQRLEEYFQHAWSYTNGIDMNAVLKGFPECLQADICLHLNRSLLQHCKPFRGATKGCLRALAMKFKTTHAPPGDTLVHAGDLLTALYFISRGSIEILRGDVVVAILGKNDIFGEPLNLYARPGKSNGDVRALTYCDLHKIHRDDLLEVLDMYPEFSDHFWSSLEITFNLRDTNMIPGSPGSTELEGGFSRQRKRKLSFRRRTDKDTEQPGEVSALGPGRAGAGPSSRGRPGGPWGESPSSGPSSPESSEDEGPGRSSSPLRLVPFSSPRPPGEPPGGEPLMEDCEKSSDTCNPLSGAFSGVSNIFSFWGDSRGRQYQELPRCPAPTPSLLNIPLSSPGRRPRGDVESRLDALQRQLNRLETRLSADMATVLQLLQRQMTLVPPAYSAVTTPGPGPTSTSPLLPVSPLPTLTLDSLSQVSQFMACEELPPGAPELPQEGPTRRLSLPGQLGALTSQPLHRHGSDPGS

[29] = system: SK-OV-3; experiment: cells; details: Homo sapiens, SK-OV-3, 72 h
Description: Antiproliferative activity against human SK-OV-3 cells assessed as inhibition of cell growth incubated for 72 hrs by celltiter-glo luminescent cell viability assay

[30] = Cmax in NOD/SCID mouse plasma xenografted with human MV4-11 cells at […], po measured up to 24 hrs by LC-MS/MS analysis; type: ADME, organism-based; details: dose 1.5 mg/kg
[31] = system: HL-60; experiment: cells; details: Homo sapiens, HL-60, 72 h
Description: Antiproliferative activity against human HL-60 cells assessed as inhibition of cell growth incubated for 72 hrs by celltiter-glo luminescent cell viability assay

[32] = system: CAKI-1; experiment: cells; details: Homo sapiens, CAKI-1, 72 h
Description: Antiproliferative activity against human CAKI-1 cells assessed as inhibition of cell growth incubated for 72 hrs by celltiter-glo luminescent cell viability assay

[33] = AUC (0 to t) in NOD/SCID mouse plasma xenografted with human MV4-11 cells at 4.5 mg/kg, po measured up to 24 hrs by LC-MS/MS analysis; type: ADME, organism-based
[34] = Cmax in mouse plasma at 2 mg/kg, iv measured up to 24 hrs by LC-MS/MS analysis; type: ADME, organism-based
[35] = AUC last in mouse plasma at 10 mg/kg, po measured up to 24 hrs by LC-MS/MS analysis; type: ADME, organism-based
[36] = system: BaF3; experiment: Antiproliferative activity against mouse BaF3 cells harbouring FLT3-ITD-N676D mutant assessed as inhibition of cell growth incubated for 72 hrs by celltiter-glo luminescent cell viability assay; type: functional, cell-based; details: BaF3, 72 h
[37] = Tmax in NOD/SCID mouse tumor xenografted with human MV4-11 cells at […], po measured up to 24 hrs by LC-MS/MS analysis; type: ADME, organism-based, Neoplasm; details: dose 1.5 mg/kg
[38] = Volume of distribution at steady state in monkey plasma at 1 mg/kg, iv measured up to 24 hrs by LC-MS/MS analysis; type: ADME, organism-based, Macaca mulatta; details: rhesus monkey, read-out: Vdss
[39] = Cmax in dog plasma at 1 mg/kg, iv measured up to 24 hrs by LC-MS/MS analysis; type: ADME, organism-based, Canis lupus familiaris
[40] = target: Platelet-derived growth factor receptor beta (Homo sapiens, UniProt P09619); experiment: Inhibition of human PDGFR beta by biochemical kinase binding assay
Platelet-derived growth factor receptor beta, sequence (P09619 whole entry): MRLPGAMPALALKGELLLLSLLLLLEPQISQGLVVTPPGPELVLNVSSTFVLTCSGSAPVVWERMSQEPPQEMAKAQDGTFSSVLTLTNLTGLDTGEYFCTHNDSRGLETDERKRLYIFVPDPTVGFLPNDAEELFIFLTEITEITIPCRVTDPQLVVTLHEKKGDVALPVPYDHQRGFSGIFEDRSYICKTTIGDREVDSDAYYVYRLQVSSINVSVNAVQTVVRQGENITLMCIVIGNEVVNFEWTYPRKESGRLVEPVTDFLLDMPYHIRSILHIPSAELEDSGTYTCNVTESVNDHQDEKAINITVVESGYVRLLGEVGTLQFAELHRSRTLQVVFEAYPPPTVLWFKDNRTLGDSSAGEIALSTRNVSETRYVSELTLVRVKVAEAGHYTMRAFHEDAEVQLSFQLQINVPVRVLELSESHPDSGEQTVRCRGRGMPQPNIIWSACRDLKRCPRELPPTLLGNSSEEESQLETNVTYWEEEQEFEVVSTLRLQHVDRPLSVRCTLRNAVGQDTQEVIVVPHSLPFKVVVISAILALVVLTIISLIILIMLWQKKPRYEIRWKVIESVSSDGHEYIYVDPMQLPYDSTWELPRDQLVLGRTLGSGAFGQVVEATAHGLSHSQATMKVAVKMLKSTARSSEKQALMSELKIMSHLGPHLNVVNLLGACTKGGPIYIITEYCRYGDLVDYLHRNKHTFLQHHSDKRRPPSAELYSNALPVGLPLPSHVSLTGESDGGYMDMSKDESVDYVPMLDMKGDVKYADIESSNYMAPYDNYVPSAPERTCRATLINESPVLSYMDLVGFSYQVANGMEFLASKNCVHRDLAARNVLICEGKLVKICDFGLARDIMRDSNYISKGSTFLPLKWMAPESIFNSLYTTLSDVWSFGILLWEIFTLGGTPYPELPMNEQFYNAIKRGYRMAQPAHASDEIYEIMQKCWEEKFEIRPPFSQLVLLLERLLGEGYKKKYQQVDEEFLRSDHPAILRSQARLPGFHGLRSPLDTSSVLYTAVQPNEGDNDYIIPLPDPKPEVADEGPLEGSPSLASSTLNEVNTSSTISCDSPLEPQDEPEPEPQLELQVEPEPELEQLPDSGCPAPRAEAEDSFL

[41] = AUC last in monkey plasma at 5 mg/kg, po measured up to 24 hrs by LC-MS/MS analysis; type: ADME, organism-based, Macaca mulatta; details: rhesus monkey, in vivo

**Q.** For `CC(C)(C)c1cc(NC(=O)Nc2ccc(C#Cc3ccc(OCCCN4CCOCC4)cc3)cc2)no1`, which inhibition [1] is on record?
**A.** Dose-dependent-effect

**Q.** What about the Activity [2] of the same compound?
**A.** Non-toxic

**Q.** And the Cmax [3]?
**A.** 895 ng/mL

**Q.** What about the inhibition [4] of the same compound?
**A.** Dose-dependent-effect

**Q.** What about the IC50 [5] of the same compound?
**A.** 7 µM

**Q.** And the IC50 [6]?
**A.** > 10 µM

**Q.** And the IC50 [7]?
**A.** > 10 µM

**Q.** What about the IC50 [8] of the same compound?
**A.** 0.154 µM

**Q.** What about the half-life [9] of the same compound?
**A.** 8.94 h

**Q.** And the IC50 [10]?
**A.** 0.422 µM

**Q.** And the IC50 [11]?
**A.** 0.439 µM

**Q.** And the IC50 [12]?
**A.** > 10 µM

**Q.** And the half-life [13]?
**A.** 1.17 h

**Q.** What about the IC50 [14] of the same compound?
**A.** 0.154 µM

**Q.** And the half-life [15]?
**A.** 11.3 h

**Q.** What about the CL/F [16] of the same compound?
**A.** 6.67 mL/min/kg

**Q.** And the IC50 [17]?
**A.** > 10 µM

**Q.** And the AUC(0-t) at 24 h [18]?
**A.** 208 ng·h/mL

**Q.** What about the clearance [19] of the same compound?
**A.** 11.3 mL/min/kg

**Q.** What about the half-life at 24 h [20] of the same compound?
**A.** 3.34 h

**Q.** What about the AUC(0-t) at 24 h [21] of the same compound?
**A.** 1470 ng·h/mL

**Q.** And the half-life [22]?
**A.** 1.73 h

**Q.** What about the inhibition in vivo at 4.5 mg/kg/day [23] of the same compound?
**A.** 94%

**Q.** And the IC50 [24]?
**A.** > 10 µM

**Q.** What about the clearance [25] of the same compound?
**A.** 18.9 mL/min/kg

**Q.** What about the Cmax [26] of the same compound?
**A.** 1660 ng/mL

**Q.** What about the Tmax [27] of the same compound?
**A.** 1 h

**Q.** And the inhibition at 30 µM [28]?
**A.** 22.8%

**Q.** And the IC50 [29]?
**A.** > 10 µM

**Q.** And the Cmax at 24 h [30]?
**A.** 52.8 ng/mL

**Q.** And the IC50 [31]?
**A.** > 10 µM

**Q.** And the IC50 [32]?
**A.** > 10 µM

**Q.** And the AUC(0-t) at 24 h [33]?
**A.** 908 ng·h/mL

**Q.** What about the Cmax [34] of the same compound?
**A.** 1820 ng/mL

**Q.** And the AUC(0-t) at 24 h [35]?
**A.** 4380 ng·h/mL

**Q.** What about the IC50 [36] of the same compound?
**A.** 0.0069 µM

**Q.** What about the Tmax at 24 h [37] of the same compound?
**A.** 6 h

**Q.** And the Vd [38]?
**A.** 0.996 L/kg

**Q.** What about the Cmax [39] of the same compound?
**A.** 633 ng/mL

**Q.** What about the IC50 [40] of the same compound?
**A.** 1.63 µM

**Q.** And the AUClast [41]?
**A.** 10800 ng·h/mL
